In US7138530B2, “Thiophene amidines, compositions thereof, and methods of treating complement-mediated diseases and conditions” (3-Dimensional Pharmaceuticals, Inc., priority 2002, dated 2006):

What follows are compounds tested against T1, activated human C1s (Homo sapiens, UniProt P09871) (assay: In vitro inhibition of C1s: Ki determination, C1s-catalyzed hydrolysis of Z-Gly-Arg-S-Bzl detected with DTNB). Conditions: purified activated human C1s 2.3 nM, Z-Gly-Arg-S-Bzl 45 μM, DTNB 200 μM, pH 7.5, 37° C., absorbance at 405 nm.
T1 construct: purchased Calbiochem (La Jolla, Calif.)
T1 sequence (P09871 438-688 limits assumed): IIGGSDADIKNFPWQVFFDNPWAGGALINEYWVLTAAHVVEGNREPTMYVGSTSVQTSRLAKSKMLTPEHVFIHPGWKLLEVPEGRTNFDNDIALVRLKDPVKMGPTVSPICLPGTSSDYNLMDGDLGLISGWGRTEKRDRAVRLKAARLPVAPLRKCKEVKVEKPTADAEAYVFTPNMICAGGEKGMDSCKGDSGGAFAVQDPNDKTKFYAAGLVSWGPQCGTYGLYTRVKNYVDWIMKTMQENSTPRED
T1 sequence (P09871 16-437 partner limits assumed): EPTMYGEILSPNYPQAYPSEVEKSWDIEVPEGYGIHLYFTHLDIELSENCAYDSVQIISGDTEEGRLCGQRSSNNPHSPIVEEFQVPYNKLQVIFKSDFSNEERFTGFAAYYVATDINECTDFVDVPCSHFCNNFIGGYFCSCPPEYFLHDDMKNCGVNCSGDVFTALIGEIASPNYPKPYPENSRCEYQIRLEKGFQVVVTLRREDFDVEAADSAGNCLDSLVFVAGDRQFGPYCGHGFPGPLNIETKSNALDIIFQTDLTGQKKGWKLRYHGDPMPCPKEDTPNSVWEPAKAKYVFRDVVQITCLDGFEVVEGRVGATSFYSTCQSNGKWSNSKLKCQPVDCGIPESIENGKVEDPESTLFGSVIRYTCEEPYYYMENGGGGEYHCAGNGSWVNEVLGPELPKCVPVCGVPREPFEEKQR
Assay type: biochemical
Protocol: Reagents: All buffer salts were obtained from Sigma Chemical Company (St. Louis, Mo.), and were of the highest purity available. DTNB was purchased from Pierce (Rockford, Ill.). Z-Gly-Arg-S-Bzl was purchased from Enzyme Systems Products (Livermore, Calif.). Activated human C1s was purchased from Calbiochem (La Jolla, Calif.).
Test compounds are prepared as a 10 μM solution in DMSO. Dilutions are prepared in DMSO yielding 7 final concentrations encompassing a 700-fold concentration range.
Reactions were initiated by the addition of a 10 μL aliquot of the enzyme, and the absorbance increase at 405 nm is continuously recorded for 15 minutes in a Molecular Devices plate reader. Final DMSO concentration was 4.3%. […] The ratio of the velocity (rate of change in absorbance as a function of time) for a sample containing no test compound is divided by the velocity of a sample containing test compound, and is plotted as a function of test compound concentration. The data are fit to a linear regression, and the value of the slope of the line calculated. The inverse of the slope is the experimentally determined Ki value.

Ki, 6 to 23 nM:
CSc1sc(C(=N)NC(=O)OC(C)(C)C)cc1S(=O)(=O)c1cccc(-c2ccc(S(C)(=O)=O)cc2)c1 [Example 57, {Imino-[4-(4′-methanesulfonyl-biphenyl-3-sulfonyl)-5-methylsulfanyl-thiophen-2-yl]-methyl}-carbamic acid tert-butyl ester]
CSc1sc(C(=N)N)cc1S(=O)(=O)c1cccc(-c2ccsc2)c1 [Example 77, 5-Methylsulfanyl-4-(3-thiophen-3-yl-benzenesulfonyl)-thiophene-2-carboxamidine]
CSc1sc(C(=N)N)cc1S(=O)(=O)c1cccc(-c2c(C)cc(NC(=N)N)cc2NC(=O)NCCCCCC(=O)O)c1 [Example 259]
